This is an account of results in PubChem BioAssay (NCI).

The structures appear in SMILES notation. Where “and” joins values, the source holds several entries; their conditions need not be identical. Equal entries are not always repeated.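 Assay format: 96-well plates, 48-hour exposure. GI50 = concentration required for 50% inhibition of growth. TGI denotes the concentration required for complete inhibition of growth.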

For the assay, the system named is MDA-MB-468 breast. Briefly: growth of human tumour cells (NCI), 48 h.
Consider `CCOC(=O)Oc1c(OC)cc(C(=O)c2ccc(OC)c(OC(=O)CCl)c2OC)cc1OC`, for which the GI50 is 2490 nM and the TGI is > 100000 nM.

`Cn1cc(-c2nc(-c3c[nH]c4ncccc34)cs2)c2cc(Cl)ccc21`: the GI50 is 316 nM and the TGI was determined as 2340 nM.

For `c1ccc(Oc2c3ccccc3nc3ccccc23)cc1`, the GI50 was 1350 nM and the TGI is 4620 nM.

For the molecule `COc1cccc(-c2nc(-c3ccc(NS(=O)(=O)c4ccccc4)cc3)[nH]c2-c2ccnc(Br)c2)c1`, the GI50 is 1980 nM and the TGI turned out to be 5230 nM.

With `Clc1ccc(N2COOC3(OOC2)C2CC4CC(C2)CC3C4)cc1`, the GI50 was 5800 nM and the TGI is > 67800 nM.

As for `O=C(CSc1nc2ccc([N+](=O)[O-])cc2[nH]1)Nc1cccc(C(F)(F)F)c1`, the GI50 is 964 nM and the TGI came to 4710 nM.

Regarding `Cc1c(C(=O)CCl)c(=O)n(-c2ccccc2)n1C`, the GI50 was 675 nM and the TGI is 3080 nM.

As for `COc1ccc(-c2nc3sccn3c2/C=C/C(=O)c2cc(OC)c(OC)c(OC)c2)cc1OC`, the GI50 was 2150 nM and the TGI was found to be 5020 nM.

Turning to `Clc1ccc(Nc2ccnc(NCCNc3ccnc4cc(Cl)ccc34)n2)cc1`, the GI50 is 1060 nM and the TGI is 2340 nM.

Consider `C[C@@H](Oc1cc(-c2cnn(C3CCNCC3)c2)cnc1N)c1c(Cl)ccc(F)c1Cl`, for which the GI50 was 1060 nM and the TGI was 3720 nM.

Turning to `COc1ccc(/C=C\c2cc(OC)c(OC)c(OC)c2)cc1NC(=O)[C@@H](N)CO`, the GI50 was < 17.8 nM and the TGI amounted to 1270 nM.

Consider `Cc1ccc2c(/C=C/C(=O)c3cc(CN4CCOCC4)c(O)c4nc(C)ccc34)cc(CN3CCOCC3)c(O)c2n1`, for which the GI50 was 434 nM and the TGI turned out to be 2020 nM.

For `O=S(=O)(Nc1cccc2ccccc12)c1ccc(-c2cnc(C3CC3)o2)cc1`, the GI50 was 43.2 nM and the TGI was 12800 nM.

`COc1ccc(C(=O)c2cc(OC)c(OC)c(OC)c2)cc1/C=C/C(=O)c1ccc(O)cc1`: the GI50 is 2070 nM and the TGI was found to be 8090 nM.

In the case of `O=c1oc2ccccc2c(Cl)c1Cl`, the GI50 was 1850 nM and the TGI was determined as 4320 nM.

As for `COc1cc(-c2cc(C(=O)Nc3nc4ccccc4s3)nc3cc(-c4ccccc4)nn23)cc(OC)c1OC`, the GI50 is 13900 nM and the TGI was determined as 38000 nM.

Take `COc1ccc(/C=C(\C#N)n2nnc3cc(Cl)ccc32)cc1`: the GI50 was 258 nM and the TGI was 941 nM.

Take `Cc1ccc(C)c(-n2c(-c3ccc(Br)cc3)csc2=NC(=O)c2ccccc2F)c1`: the GI50 was > 100000 nM and the TGI is > 100000 nM.

With `Nc1nc(-c2cccc([N+](=O)[O-])c2)c(N=Nc2ccccc2[N+](=O)[O-])s1`, the GI50 was 2700 nM and the TGI was 26200 nM.

With `COC(=O)/C=C1\SC(=Nc2ccc(C(F)(F)F)cc2)N(CCc2c[nH]c3ccccc23)C1=O`, the GI50 is 2080 nM and the TGI was 4050 nM.

As to `CCN(CC)c1ccc2[nH]c3c(C(N)=O)cc(=O)c(=O)c=3oc2c1`, the GI50 was 1850 nM and the TGI worked out at 4750 nM.

As for `CC(C)(C)[Si](C)(C)OC1[C@@H](O[Si](C)(C)C(C)(C)C)[C@@H](CNC(=O)NC(=O)NC(=O)CI)O[C@H]1n1cnc2c(NC(=O)Nc3ccccc3)ncnc21` (stereo not given in full), the GI50 is 334 nM and the TGI worked out at 2060 nM.

Take `CS(=O)(=O)c1ccc(Oc2nccc(-c3c(-c4ccc(F)cc4)ncn3C3CCNCC3)n2)cc1`: the GI50 is 19100 nM and the TGI is > 25000 nM.

With `O=C1c2[nH]cc(CN[C@@H]3CCCN3)c2C(=O)c2c1c(O)c1ccccc1c2O`, the GI50 was 1180 nM and the TGI was found to be 2650 nM.

Turning to `COc1ccc(/C=C/C(=O)/C=C(/C=C/c2ccc(OC)c(OC)c2)OB(F)F)cc1OC`, the GI50 was 578 nM and the TGI was found to be 2890 nM.

`Nc1nc(N)c2c(n1)NC(c1ccc(F)cc1)CC(c1ccc(Nc3nc(NCCO)nc(Nc4ccc(Cl)cc4)n3)cc1)=N2` (stereo not given): the GI50 was 1480 nM and the TGI was found to be 3150 nM.

Take `COc1cc(-c2nnc(SCc3ccc(O)c4ncccc34)n2-c2ccccc2)cc(OC)c1OC`: the GI50 was 251 nM and the TGI was 2530 nM.

Regarding `O=C(Nc1cccc(NS(=O)(=O)c2ccc(F)cc2)c1)c1ccc(-c2ccccc2)cc1`, the GI50 is 2180 nM and the TGI turned out to be 9560 nM.

Take `O=P(Oc1ccccc1)(Oc1ccccc1)C(O)c1ccccc1` (stereo not given): the GI50 was 35000 nM and the TGI is > 100000 nM.

As to `COc1ccc(-n2c(-c3ccc(NC(=O)CCCl)cc3)nnc2-c2cc(OC)c(OC)c(OC)c2)cc1`, the GI50 was 2080 nM and the TGI was determined as 5680 nM.

With `CCNCCNc1cc(-c2ccc(Cl)cc2)c(C#N)c2nc3ccccc3n12`, the GI50 was 642 nM and the TGI came out at 2090 nM.

In the case of `COc1c(O)cc2oc3cc(O)c(CC=C(C)C)c(O)c3c(=O)c2c1C/C=C(\C)CCC=C(C)C`, the GI50 was 7160 nM and the TGI is 12500 nM.

Turning to `C=C1C(=O)O[C@H]2[C@H]1CC/C(COC(=O)/C=C/c1cccnc1)=C\CC[C@@]1(C)O[C@@H]21`, the GI50 is 831 nM and the TGI is 4300 nM.

As to `O=C(CCl)Nc1ccccc1SCc1cc(Cl)cc2c1OCOC2`, the GI50 was 1930 nM and the TGI is 4500 nM.

`O=C1NC(=O)[C@@H](c2cn3c4c(cccc24)CCC3)[C@@H]1c1c[nH]c2ccccc12`: the GI50 is 306 nM and 260 nM; the TGI was > 10000 nM and 3810 nM.

In the case of `CCN(Cc1ccc(F)cc1F)c1ccc(CO)c(Cl)c1`, the GI50 was 15.9 nM and the TGI is 39.5 nM.

As for `OCc1ccc(N(Cc2ccc(F)cc2)C2CCC2)cc1Cl`, the GI50 was 17.6 nM and the TGI turned out to be 46.4 nM.

Turning to `O=C(Nc1ncc([N+](=O)[O-])s1)c1cccc([N+](=O)[O-])c1`, the GI50 is 3420 nM and the TGI turned out to be 38700 nM.

Turning to `O=C1C(Cl)=C(Oc2ccccc2)C(=O)c2ccccc21`, the GI50 is 1930 nM and the TGI was 3750 nM.

Regarding `c1ccc2c(NCCCn3ccnc3)c3oc4ccccc4c3nc2c1`, the GI50 was 1660 nM and the TGI worked out at 3420 nM.
